# Results: EPA's ToxRefDB 2
# Columns and labels:
# primate [1] = conditions: Sub-acute repeat dose toxicity; Oral; Gavage/Intubation; dose end: 7 day; group: systemic; systemic / in life observation / clinical signs / abnormal feces + systemic / hematology / erythrocyte (rbc) count differential / …
# primate [2] = conditions: Subchronic oral toxicity in nonrodent, Gavage/Intubation, dose end: 42 day, group: systemic, systemic / clinical chemistry / [other] / [other] + systemic / clinical chemistry / cytochrome p450, nos / cytochrome p450, nos + systemic…
# primate [3] = conditions: Sub-acute repeat dose toxicity; Oral; Gavage/Intubation; dose end: 14 day; group: systemic; systemic / clinical chemistry / [other] / [other] + systemic / clinical chemistry / testosterone / testosterone + systemic / hematology / …
# rat [4] = conditions: Sub-acute repeat dose toxicity; Oral; Gavage/Intubation; dose end: 14 day; group: systemic; systemic / clinical chemistry / protein / protein + systemic / hematology / erythrocyte (rbc) count differential / erythrocyte (rbc) + …
# rat [5] = conditions: Sub-acute repeat dose toxicity, Oral, Gavage/Intubation, dose end: 7 day, group: systemic
# rat [6] = conditions: Prenatal developmental toxicity study, sprague dawley, Oral, Gavage/Intubation, dose end: 17 GD
# rat [7] = conditions: Sub-acute repeat dose toxicity; sprague dawley; Oral; Gavage/Intubation; dose end: 28 day; group: systemic; systemic / in life observation / body weight / body weight gain + systemic / in life observation / clinical signs / alopecia + systemic / in…
# rat [8] = conditions: Prenatal developmental toxicity study, sprague dawley, Oral, Gavage/Intubation, dose end: 17 GD; remark: listed apart in the source
# rat [9] = conditions: Chronic toxicity, sprague dawley, Oral, Gavage/Intubation, dose end: 6 month, group: systemic
# rabbit [10] = conditions: Prenatal developmental toxicity study, himalayan, Oral, Gavage/Intubation, dose end: 19 GD
# dog [11] = conditions: Sub-acute repeat dose toxicity, beagle, Oral, Capsule, dose end: 4 week, group: systemic
# rat [12] = conditions: Fertility (Segment I); sprague dawley; Oral; Gavage/Intubation; dose end: 7 GD; group: parental; systemic / in life observation / body weight / body weight gain + systemic / in life observation / clinical signs / motor activity + …
# rabbit [13] = conditions: Prenatal developmental toxicity study, himalayan, Oral, Gavage/Intubation, dose end: 19 GD; remark: listed apart in the source
# dog [14] = conditions: Chronic toxicity, beagle, Oral, Gavage/Intubation, dose end: 6 month, group: systemic
# dog [15] = conditions: Chronic toxicity, beagle, Oral, Gavage/Intubation, dose end: 1 year, group: systemic
# [16] = systemic / clinical chemistry / protein / protein + systemic / hematology / neutrophils / neutrophils + systemic / in life observation / …
# [17] = systemic / in life observation / food consumption / food consumption + systemic / clinical chemistry / cytochrome p450, nos / cytochrome …
# [18] = group: developmental, systemic / in life observation / body weight / fetal weight
# [19] = group: maternal, reproductive / reproductive performance / postimplantation loss / postimplantation loss + reproductive / reproductive performance / …
# [20] = group: developmental, developmental / developmental malformation / bone / [other] + developmental / developmental malformation / bone / absent + developmental / …
# [21] = group: maternal, systemic / in life observation / body weight / body weight gain + systemic / in life observation / food consumption / food consumption + …
# [22] = systemic / in life observation / clinical signs / convulsions + systemic / in life observation / mortality / mortality + systemic / …
# [23] = systemic / pathology microscopic / adrenal gland / dilatation + systemic / pathology microscopic / thyroid gland / hyperplasia + systemic / …
# [24] = group: maternal, systemic / in life observation / food consumption / food consumption
# [25] = group: maternal, systemic / in life observation / food consumption / food consumption + systemic / in life observation / body weight / body weight + systemic…
# [26] = systemic / in life observation / body weight / body weight gain + systemic / in life observation / food consumption / food consumption + …
# [27] = systemic / pathology microscopic / larynx / inflammation
# [28] = group: maternal, systemic / in life observation / body weight / body weight + systemic / in life observation / body weight / body weight gain + systemic / in…
# [29] = systemic / in life observation / body weight / body weight gain + systemic / in life observation / clinical signs / vomitting
# [30] = systemic / in life observation / body weight / body weight gain + systemic / in life observation / clinical signs / vomitting + systemic / …
# [31] = systemic / in life observation / body weight / body weight gain + systemic / pathology microscopic / eye / opacity
# [32] = systemic / in life observation / clinical signs / convulsions + systemic / in life observation / clinical signs / general pallor + systemic…
smiles,measurement,setting,value
Cc1oc(-c2ccccc2)nc1CCOc1cccc2c1ccn2CCC(=O)O,LEL,primate [1],100 mg/kg/day
same,LOAEL,primate [1],> 2000 mg/kg/day
same,NEL,primate [1],< 100 mg/kg/day
same,NOAEL,primate [1],≥ 2000 mg/kg/day
same,LEL,primate [2],100 mg/kg/day
same,LOAEL,primate [2],> 100 mg/kg/day
same,NEL,primate [2],< 100 mg/kg/day
same,NOAEL,primate [2],≥ 100 mg/kg/day
same,LEL,primate [3],100 mg/kg/day
same,LOAEL,primate [3],> 2000 mg/kg/day
same,NEL,primate [3],< 100 mg/kg/day
same,NOAEL,primate [3],≥ 2000 mg/kg/day
same,LEL,rat [4],10 mg/kg/day
same,LOAEL,rat [4],> 1000 mg/kg/day
same,NEL,rat [4],< 10 mg/kg/day
same,NOAEL,rat [4],≥ 1000 mg/kg/day
same,LOAEL,rat [5]; [16],> 2000 mg/kg/day
same,NOAEL,rat [5]; [16],≥ 2000 mg/kg/day
same,LEL,rat [5]; [17],100 mg/kg/day
same,NEL,rat [5]; [17],< 100 mg/kg/day
O=C(Oc1ccc(Br)cc1)N1CCN2CCC1CC2,LEL,rat [6]; [18],75 mg/kg/day
same,LOAEL,rat [6]; [18],> 75 mg/kg/day
same,NEL,rat [6]; [18],25 mg/kg/day
same,NOAEL,rat [6]; [18],≥ 75 mg/kg/day
same,LOAEL,rat [6]; [19],> 75 mg/kg/day
same,NEL,rat [6]; [19],5 mg/kg/day
same,NOAEL,rat [6]; [19],≥ 75 mg/kg/day
same,LEL,"rat [6]; group: maternal, reproductive / reproductive performance / preimplantation loss / preimplantation loss + systemic / in life observation / body weight / body …",25 mg/kg/day
same,LEL,rat [7],5 mg/kg/day
same,LOAEL,rat [7],25 mg/kg/day
same,NEL,rat [7],< 5 mg/kg/day
same,NOAEL,rat [7],5 mg/kg/day
same,LOAEL,rat [8]; [20],50 mg/kg/day
same,NEL,rat [8]; [20],5 mg/kg/day
same,NOAEL,rat [8]; [20],20 mg/kg/day
same,LEL,"rat [8]; group: developmental, developmental / developmental malformation / bone / incomplete ossification",20 mg/kg/day
same,LOAEL,rat [8]; [21],50 mg/kg/day
same,NEL,rat [8]; [21],5 mg/kg/day
same,NOAEL,rat [8]; [21],20 mg/kg/day
same,LEL,"rat [8]; group: maternal, systemic / organ weight / uterus / nos",20 mg/kg/day
same,LOAEL,rat [9]; [22],75 mg/kg/day
same,NOAEL,rat [9]; [22],25 mg/kg/day
same,LEL,rat [9]; [23],5 mg/kg/day
same,NEL,rat [9]; [23],< 5 mg/kg/day
same,LEL,rabbit [10]; [18],24 mg/kg/day
same,LOAEL,rabbit [10]; [18],> 24 mg/kg/day
same,NEL,rabbit [10]; [18],8 mg/kg/day
same,NOAEL,rabbit [10]; [18],≥ 24 mg/kg/day
same,LEL,rabbit [10]; [24],3 mg/kg/day
same,NEL,rabbit [10]; [24],< 3 mg/kg/day
same,LOAEL,rabbit [10]; [25],> 24 mg/kg/day
same,NOAEL,rabbit [10]; [25],≥ 24 mg/kg/day
same,LOAEL,dog [11]; [26],> 30 mg/kg/day
same,NOAEL,dog [11]; [26],≥ 30 mg/kg/day
same,LEL,dog [11]; [27],3 mg/kg/day
same,NEL,dog [11]; [27],< 3 mg/kg/day
same,LEL,rat [12],50 mg/kg/day
same,LOAEL,rat [12],50 mg/kg/day
same,NEL,rat [12],20 mg/kg/day
same,NOAEL,rat [12],20 mg/kg/day
same,LEL,rabbit [13]; [18],30 mg/kg/day
same,LOAEL,rabbit [13]; [18],> 30 mg/kg/day
same,NEL,rabbit [13]; [18],10 mg/kg/day
same,NOAEL,rabbit [13]; [18],≥ 30 mg/kg/day
same,LEL,rabbit [13]; [28],10 mg/kg/day
same,LOAEL,rabbit [13]; [28],> 30 mg/kg/day
same,NEL,rabbit [13]; [28],3 mg/kg/day
same,NOAEL,rabbit [13]; [28],≥ 30 mg/kg/day
same,LEL,dog [14]; [29],1.5 mg/kg/day
same,NEL,dog [14]; [29],< 1.5 mg/kg/day
same,LOAEL,dog [14]; [30],> 15 mg/kg/day
same,NOAEL,dog [14]; [30],≥ 15 mg/kg/day
same,LEL,dog [15]; [31],5 mg/kg/day
same,NEL,dog [15]; [31],< 5 mg/kg/day
same,LOAEL,dog [15]; [32],> 12.5 mg/kg/day
same,NOAEL,dog [15]; [32],≥ 12.5 mg/kg/day
